Like-named read-outs stand apart in the source and are kept apart here.

The target in test [1] is T1, FEM1B (Mus musculus, UniProt Q9Z2G0). Put plainly: competitive fluorescence polarization with TAMRA-FNIP1 degron. Format: binding. In general terms: Polarisation of emitted light reports the rotation of a fluorescent probe.
Test [2] has as its target T1, FEM1B. The test is described as above. Format: binding. This is another data set of the same source.

T1 sequence (Q9Z2G0 whole entry): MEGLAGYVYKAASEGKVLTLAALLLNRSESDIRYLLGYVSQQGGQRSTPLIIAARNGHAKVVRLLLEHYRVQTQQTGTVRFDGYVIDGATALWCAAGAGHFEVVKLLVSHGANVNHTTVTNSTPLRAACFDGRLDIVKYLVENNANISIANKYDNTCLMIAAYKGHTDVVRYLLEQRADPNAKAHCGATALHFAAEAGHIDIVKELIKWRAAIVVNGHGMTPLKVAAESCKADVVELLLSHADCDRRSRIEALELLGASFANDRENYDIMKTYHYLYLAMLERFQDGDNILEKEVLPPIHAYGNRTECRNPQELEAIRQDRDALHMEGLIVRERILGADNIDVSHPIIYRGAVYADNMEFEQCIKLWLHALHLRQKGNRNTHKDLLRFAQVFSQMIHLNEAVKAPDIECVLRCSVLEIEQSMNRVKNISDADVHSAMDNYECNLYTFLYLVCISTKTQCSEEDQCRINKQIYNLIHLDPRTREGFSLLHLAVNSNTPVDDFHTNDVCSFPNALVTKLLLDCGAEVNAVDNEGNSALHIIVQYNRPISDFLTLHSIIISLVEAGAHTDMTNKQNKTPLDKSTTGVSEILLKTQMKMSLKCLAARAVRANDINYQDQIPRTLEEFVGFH

For the compound `C#CCCCC(=O)N1CCOc2cc(N(CCC#N)C(=O)CCl)ccc21` [NJH-2-030], the IC50 (in general, the midpoint of a concentration-inhibition curve) on FEM1B [1] was 0.67 µM. The compound NJH-1-106 yielded an IC50 at FEM1B [2] of 1.5 µM.

The values are drawn from PMC8928484 (Journal of the American Chemical Society, 2022).
